A short description of data set [1]: Bioavailability studies with conventional oral dosage forms in animals. Type of data set: in vivo. From the text: (§1) One of the objects of the invention is to overcome these drawbacks observed with conventional dosage forms.
Data set [2] in a line: Solubility of ocaperidone in water and buffers of gastro-intestinal fluids. Format: physicochemical. As to the method: Ocaperidone is virtually insoluble in water. Its water solubility is less or equal to 0.007 mg per mL. […] In order to be absorbed uniformly from the gastrointestinal tract after oral administration, the drug must be dissolved and must remain in the solution for absorption. The pH of the gastrointestinal tract varies from pH 1 to 5 in the stomach and pH 4 to 7.5 in the intestine. There is also known significant variation of the intestinal pH on an intra- and inter-individual basis in the general population. This variation is mostly attributed to factors such as gastro-intestinal motility, concomitantly administered food or drug and food habits etc. It is an object of the present invention to provide a therapeutic system for ocaperidone from which, despite its very low solubility in water (0.007 mg/mL), is dispensed/released in the surrounding intestinal environment in a dissolved state. This invention eliminates the effect of surrounding pH on the solubility of ocaperidone. In addition, this improvement in solubility makes this therapeutic system to function appropriately from the bioavailability point of view and overcomes the inter- and intra-individual variability.

A short description of data set [3]: Bioavailability studies with conventional oral dosage forms in humans. Type of data set: in vivo. The following applies: within a patient and between patients.
Text: as §1

Values after ≈ are worked out from the molar mass of the structure shown. A value given as a limit tells only on which side of the number the result lay.

Usually solubility stands for how much of the substance goes into solution per volume. A low value points to a poorly soluble substance.

Regarding `Cc1nc2c(C)cccn2c(=O)c1CCN1CCC(c2noc3cc(F)ccc23)CC1` [Ocaperidone], the variability of bioavailability result in data set [1] and in data set [3] was “significant high variability” each time. Moreover, the “solubility in the buffers of gastro-intestinal fluids” value in data set [2] (buffers of pH 3.0 and above) is recorded as “in the same range as that of water”. The same compound yielded a solubility in data set [2] (water) of 7 µg/mL (≈ 16.6 µM). Further, in data set [2] (water), the water solubility was at most 0.007 mg per mL.

These data come from patent US20080103159A1, “Composition Comprising Ocaperidone” (priority 2005, published 2008).
